Experimental findings from patent publication US7074789B2, “Kinase inhibitors” (Amgen Inc., priority 1999, dated 2006) are described below.

Common to all, as to type: biochemical
One experiment has as its target T1, Lck (Homo sapiens, UniProt P06239).
T1 construct: Kinases are expressed as either kinase domains or full length constructs; made in house
Description: Kinase inhibition assay (33P transfer), Lck. The conditions noted are these: Table 3, class symbols; read-out: Lck-1. Summed up: (§1)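 33P-ATP transfer to coated synthetic polymer substrates; acid wash (0.5% H3PO4), scintillant, liquid scintillation count. Enzymes: His- or GST-fusion kinases from E. coli or High Five insect cells.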

The target of another experiment is T2, Zap-70 (Homo sapiens, UniProt P43403).
T2 construct: Kinases are expressed as either kinase domains or full length constructs; made in house
T2 sequence (P43403 1-619): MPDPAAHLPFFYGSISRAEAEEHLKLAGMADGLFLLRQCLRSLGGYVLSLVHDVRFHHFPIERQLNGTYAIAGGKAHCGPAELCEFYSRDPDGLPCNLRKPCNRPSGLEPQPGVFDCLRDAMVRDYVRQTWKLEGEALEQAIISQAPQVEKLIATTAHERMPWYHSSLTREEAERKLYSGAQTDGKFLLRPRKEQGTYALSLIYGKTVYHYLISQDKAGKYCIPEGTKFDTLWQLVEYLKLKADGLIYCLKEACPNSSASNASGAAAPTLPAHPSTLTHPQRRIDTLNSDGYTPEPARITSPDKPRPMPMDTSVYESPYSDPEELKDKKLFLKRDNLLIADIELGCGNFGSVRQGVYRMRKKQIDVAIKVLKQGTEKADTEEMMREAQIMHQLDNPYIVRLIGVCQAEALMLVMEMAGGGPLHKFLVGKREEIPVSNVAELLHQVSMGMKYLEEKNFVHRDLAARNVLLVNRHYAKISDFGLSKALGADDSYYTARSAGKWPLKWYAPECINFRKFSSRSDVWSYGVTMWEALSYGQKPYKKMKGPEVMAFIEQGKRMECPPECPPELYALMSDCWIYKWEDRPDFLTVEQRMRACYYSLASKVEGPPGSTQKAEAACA
Briefly: Kinase inhibition assay (33P transfer), Zap-70. The conditions noted are these: Table 3, class symbols; read-out: Zap-1. Put shortly: as §1

For another experiment, the target named is T3, Itk (Homo sapiens, UniProt Q08881).
T3 construct: Kinases are expressed as either kinase domains or full length constructs; made in house
T3 sequence (Q08881 1-620): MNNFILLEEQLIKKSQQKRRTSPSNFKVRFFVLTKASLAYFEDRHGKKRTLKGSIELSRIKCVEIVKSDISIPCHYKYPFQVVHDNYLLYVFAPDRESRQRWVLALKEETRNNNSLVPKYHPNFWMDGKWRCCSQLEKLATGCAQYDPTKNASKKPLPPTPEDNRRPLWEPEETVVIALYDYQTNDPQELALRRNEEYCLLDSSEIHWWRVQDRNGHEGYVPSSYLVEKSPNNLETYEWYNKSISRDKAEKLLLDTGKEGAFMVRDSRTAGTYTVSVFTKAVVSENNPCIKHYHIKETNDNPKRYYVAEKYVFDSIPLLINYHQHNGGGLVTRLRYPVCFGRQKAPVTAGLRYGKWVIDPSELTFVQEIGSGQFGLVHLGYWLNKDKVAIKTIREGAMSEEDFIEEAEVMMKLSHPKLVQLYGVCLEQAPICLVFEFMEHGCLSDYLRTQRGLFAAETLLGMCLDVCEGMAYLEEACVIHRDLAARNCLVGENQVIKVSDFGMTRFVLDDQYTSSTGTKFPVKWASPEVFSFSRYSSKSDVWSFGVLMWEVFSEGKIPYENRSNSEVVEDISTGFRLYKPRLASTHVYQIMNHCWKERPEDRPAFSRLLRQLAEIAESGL
Briefly: Kinase inhibition assay (33P transfer), Itk. The note with it: Table 3, class symbols; read-out: Itk-1. Put shortly:
(§2)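 Using immobilised substrate copolymers (poly(Glu,Tyr) 4:1; poly(Arg,Ser) 3:1) and [33P]ATP, purified fusion kinases were allowed to react; plates were then rinsed in 0.5% phosphoric acid and counted in a scintillation detector. Half-maximal inhibition of label transfer defines IC50.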

Another experiment concerns the target T4, EGFR (Homo sapiens, UniProt P00533).
T4 construct: Kinases are expressed as either kinase domains or full length constructs; made in house
Description: Kinase inhibition assay (33P transfer), EGFR. The conditions noted are these: Table 2, class symbols A-E; read-out: EGFR-1. Put shortly:
as §2

In another experiment the target is T5, ErbB2 (Homo sapiens, UniProt P04626).
T5 construct: Kinases are expressed as either kinase domains or full length constructs; made in house
Briefly: Kinase inhibition assay (33P transfer), ErbB2. The note with it: read-out: ErbB2-2. Put shortly:
as §2

Another experiment addresses T6, Kdr (Homo sapiens, UniProt P35968).
T6 construct: Kinases are expressed as either kinase domains or full length constructs; made in house
Briefly: Kinase inhibition assay (33P transfer), Kdr. The note with it: Table 3, class symbols; read-out: KDR-1. Put shortly:
as §1

In a further experiment the target is T7, c-Met (Homo sapiens, UniProt P08581).
T7 construct: Kinases are expressed as either kinase domains or full length constructs; made in house
Briefly: Kinase inhibition assay (33P transfer), c-Met. The conditions noted are these: Table 2, class symbols A-E; read-out: Met-1. Put shortly: as §2

The next experiment deals with T8, AKT (Homo sapiens, UniProt Q9Y243).
T8 construct: Kinases are expressed as either kinase domains or full length constructs; made in house
Briefly: Kinase inhibition assay (33P transfer), AKT. The conditions noted are these: Table 2, class symbols A-E; read-out: AKT3-1. Summed up:
as §1

In the next experiment the target is T9, IGFR-1 (Homo sapiens, UniProt P08069).
T9 construct: Kinases are expressed as either kinase domains or full length constructs; made in house
Briefly: Kinase inhibition assay (33P transfer), IGFR-1. The conditions noted are these: Table 2, class symbols A-E.

Another experiment has as its target T10, PDGFRB (Homo sapiens, UniProt P09619).
T10 construct: Kinases are expressed as either kinase domains or full length constructs; made in house
Briefly: Kinase inhibition assay (33P transfer), PDGFRB. The conditions noted are these: read-out: PDGFRB-1.

T10 sequence (P09619 33-1106, species assumed): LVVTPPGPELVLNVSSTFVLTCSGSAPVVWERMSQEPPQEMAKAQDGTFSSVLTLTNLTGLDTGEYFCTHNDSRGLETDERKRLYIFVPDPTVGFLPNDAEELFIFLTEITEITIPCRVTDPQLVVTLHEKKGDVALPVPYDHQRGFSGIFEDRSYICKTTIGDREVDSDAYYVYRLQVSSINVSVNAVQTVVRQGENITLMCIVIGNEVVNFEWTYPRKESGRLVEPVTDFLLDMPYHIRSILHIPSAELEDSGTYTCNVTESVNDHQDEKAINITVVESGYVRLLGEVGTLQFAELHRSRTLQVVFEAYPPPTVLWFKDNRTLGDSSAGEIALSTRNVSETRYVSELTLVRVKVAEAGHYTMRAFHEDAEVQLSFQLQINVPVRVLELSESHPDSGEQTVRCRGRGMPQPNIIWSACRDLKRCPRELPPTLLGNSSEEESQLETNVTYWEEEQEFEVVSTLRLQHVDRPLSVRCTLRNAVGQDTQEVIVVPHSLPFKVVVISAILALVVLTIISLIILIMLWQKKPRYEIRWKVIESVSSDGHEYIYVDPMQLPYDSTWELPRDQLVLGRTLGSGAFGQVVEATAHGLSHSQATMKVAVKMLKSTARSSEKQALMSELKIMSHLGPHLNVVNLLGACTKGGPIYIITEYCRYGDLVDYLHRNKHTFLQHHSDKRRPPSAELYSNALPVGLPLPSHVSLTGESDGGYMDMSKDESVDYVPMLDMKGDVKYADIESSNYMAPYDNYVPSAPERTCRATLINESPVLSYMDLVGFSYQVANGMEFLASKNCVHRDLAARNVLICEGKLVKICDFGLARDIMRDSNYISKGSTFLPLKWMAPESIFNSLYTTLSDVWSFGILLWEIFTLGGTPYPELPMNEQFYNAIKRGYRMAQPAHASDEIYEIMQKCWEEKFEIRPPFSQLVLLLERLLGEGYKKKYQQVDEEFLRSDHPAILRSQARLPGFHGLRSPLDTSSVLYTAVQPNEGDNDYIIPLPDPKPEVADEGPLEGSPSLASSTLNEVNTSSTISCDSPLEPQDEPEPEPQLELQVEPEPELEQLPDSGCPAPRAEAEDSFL
T7 sequence (P08581 25-1390): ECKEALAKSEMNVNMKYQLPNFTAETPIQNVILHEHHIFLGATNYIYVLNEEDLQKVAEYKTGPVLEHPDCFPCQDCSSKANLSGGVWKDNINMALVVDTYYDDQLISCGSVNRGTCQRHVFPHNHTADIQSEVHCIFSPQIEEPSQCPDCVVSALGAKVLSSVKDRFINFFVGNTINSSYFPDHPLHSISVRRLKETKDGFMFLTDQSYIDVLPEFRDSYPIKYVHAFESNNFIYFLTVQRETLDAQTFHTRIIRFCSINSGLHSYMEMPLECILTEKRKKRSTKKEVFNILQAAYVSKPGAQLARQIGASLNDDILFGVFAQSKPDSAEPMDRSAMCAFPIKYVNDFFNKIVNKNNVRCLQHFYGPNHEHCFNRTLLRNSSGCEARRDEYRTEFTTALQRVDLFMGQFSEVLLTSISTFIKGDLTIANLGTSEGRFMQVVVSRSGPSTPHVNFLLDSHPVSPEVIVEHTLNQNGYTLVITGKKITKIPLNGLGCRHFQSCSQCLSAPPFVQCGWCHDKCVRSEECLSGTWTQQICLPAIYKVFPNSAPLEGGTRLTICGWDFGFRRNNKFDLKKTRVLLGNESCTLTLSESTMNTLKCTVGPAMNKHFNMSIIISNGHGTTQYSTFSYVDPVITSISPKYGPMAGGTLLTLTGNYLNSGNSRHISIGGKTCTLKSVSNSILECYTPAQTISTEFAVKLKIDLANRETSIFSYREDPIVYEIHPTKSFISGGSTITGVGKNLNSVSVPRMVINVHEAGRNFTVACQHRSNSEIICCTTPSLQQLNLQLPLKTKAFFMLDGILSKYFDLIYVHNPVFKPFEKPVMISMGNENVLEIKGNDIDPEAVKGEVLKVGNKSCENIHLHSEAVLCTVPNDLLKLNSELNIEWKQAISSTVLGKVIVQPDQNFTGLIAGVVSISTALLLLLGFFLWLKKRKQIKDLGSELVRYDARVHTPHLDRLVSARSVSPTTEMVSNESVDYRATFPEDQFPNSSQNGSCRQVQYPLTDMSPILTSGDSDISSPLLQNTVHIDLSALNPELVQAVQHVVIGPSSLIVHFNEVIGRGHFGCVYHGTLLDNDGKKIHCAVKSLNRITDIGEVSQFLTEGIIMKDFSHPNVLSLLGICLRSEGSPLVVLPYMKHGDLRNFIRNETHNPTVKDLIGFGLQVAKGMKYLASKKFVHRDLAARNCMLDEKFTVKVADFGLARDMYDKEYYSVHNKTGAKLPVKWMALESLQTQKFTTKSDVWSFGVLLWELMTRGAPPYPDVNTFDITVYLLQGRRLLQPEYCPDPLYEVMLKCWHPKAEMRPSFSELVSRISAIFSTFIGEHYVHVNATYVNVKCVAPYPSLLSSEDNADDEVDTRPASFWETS
T5 sequence (P04626 23-1255, species assumed): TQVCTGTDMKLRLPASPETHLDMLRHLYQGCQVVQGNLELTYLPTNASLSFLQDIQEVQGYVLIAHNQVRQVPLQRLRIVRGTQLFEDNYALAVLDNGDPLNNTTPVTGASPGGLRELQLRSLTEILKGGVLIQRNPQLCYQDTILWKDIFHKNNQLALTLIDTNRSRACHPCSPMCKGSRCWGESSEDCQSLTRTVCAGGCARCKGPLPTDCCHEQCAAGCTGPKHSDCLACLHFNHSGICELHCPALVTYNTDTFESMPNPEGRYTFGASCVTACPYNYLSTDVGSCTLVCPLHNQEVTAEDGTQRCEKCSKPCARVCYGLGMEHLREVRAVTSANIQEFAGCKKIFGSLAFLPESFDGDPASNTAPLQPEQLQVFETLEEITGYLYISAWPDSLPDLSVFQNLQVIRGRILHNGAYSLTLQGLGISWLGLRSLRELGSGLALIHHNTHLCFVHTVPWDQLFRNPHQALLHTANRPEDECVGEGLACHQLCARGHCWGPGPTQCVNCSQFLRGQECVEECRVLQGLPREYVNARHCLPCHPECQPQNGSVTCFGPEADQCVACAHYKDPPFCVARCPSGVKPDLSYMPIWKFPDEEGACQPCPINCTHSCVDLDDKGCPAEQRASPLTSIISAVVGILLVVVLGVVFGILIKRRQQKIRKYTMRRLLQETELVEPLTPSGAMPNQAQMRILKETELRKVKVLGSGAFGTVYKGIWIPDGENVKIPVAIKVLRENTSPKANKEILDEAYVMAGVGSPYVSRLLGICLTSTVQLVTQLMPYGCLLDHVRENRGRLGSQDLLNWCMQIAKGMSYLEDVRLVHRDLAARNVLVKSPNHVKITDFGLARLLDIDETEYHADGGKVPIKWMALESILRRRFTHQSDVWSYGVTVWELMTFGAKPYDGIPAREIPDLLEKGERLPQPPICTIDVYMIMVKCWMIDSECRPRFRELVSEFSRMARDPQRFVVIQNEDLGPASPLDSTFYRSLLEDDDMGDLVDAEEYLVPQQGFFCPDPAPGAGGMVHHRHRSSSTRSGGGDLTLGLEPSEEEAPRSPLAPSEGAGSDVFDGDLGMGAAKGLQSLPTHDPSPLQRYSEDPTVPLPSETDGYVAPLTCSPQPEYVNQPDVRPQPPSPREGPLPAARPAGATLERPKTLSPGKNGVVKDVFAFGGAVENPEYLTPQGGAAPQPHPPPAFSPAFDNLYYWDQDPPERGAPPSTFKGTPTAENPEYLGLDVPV
T4 sequence (P00533 25-1210, species assumed): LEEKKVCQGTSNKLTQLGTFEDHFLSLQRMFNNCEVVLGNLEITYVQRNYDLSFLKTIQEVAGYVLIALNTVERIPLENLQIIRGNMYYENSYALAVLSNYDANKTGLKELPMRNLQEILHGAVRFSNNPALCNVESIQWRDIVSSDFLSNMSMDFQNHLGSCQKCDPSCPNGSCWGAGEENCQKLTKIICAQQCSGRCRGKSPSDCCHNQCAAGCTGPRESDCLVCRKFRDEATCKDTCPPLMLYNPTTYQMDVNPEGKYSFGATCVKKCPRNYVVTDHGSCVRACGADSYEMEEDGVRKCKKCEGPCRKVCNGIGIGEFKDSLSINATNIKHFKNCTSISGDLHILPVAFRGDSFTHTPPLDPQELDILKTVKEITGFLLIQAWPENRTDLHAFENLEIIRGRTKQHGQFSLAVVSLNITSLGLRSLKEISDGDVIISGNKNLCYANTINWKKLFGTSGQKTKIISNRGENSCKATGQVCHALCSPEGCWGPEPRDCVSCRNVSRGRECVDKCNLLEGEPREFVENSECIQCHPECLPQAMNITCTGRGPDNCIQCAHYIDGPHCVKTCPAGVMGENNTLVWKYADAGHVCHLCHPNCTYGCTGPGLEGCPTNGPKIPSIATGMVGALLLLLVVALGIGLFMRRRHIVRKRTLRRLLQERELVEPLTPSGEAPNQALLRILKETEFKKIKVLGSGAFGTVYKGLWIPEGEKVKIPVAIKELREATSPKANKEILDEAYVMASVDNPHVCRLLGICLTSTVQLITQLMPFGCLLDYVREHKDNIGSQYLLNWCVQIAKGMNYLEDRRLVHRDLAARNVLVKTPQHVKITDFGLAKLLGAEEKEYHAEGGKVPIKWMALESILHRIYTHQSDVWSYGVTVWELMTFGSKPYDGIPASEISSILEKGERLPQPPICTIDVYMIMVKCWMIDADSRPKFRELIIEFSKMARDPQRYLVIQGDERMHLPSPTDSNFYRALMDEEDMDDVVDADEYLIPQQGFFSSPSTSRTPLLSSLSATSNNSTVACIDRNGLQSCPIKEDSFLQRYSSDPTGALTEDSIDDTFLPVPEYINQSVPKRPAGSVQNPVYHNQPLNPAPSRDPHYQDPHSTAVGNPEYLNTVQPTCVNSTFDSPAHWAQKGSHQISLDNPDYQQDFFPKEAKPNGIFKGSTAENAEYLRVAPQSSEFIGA

As for `CNS(=O)(=O)Cc1ccc(Nc2ncnc(Nc3cc(-c4ccco4)[nH]n3)n2)cc1` [Compound 888], the IC50 at Lck is 5.63 to 8.21 µM; on Zap-70, more than 10.6 µM; at Itk, less than 0.938 µM; on EGFR it was 0.938 to 5.63 µM; at ErbB2, 0.938 to 5.63 µM; on Kdr, less than 0.938 µM. Also, the IC50 on c-Met was less than 0.938 µM; on AKT, 0.938 to 5.63 µM; against IGFR-1, less than 0.938 µM; on PDGFRB it was 0.938 to 5.63 µM.

As to `Cc1nccc(-c2cccc(Nc3ncnc(Nc4ccc5c(cnn5Cc5ccccc5)c4)n3)c2)n1` [Compound 901], the IC50 at Lck is 0.824 to 4.94 µM; on Zap-70, more than 9.27 µM; on Itk, 0.824 to 4.94 µM; on EGFR, less than 0.824 µM; on ErbB2, 0.824 to 4.94 µM; at Kdr, 0.824 to 4.94 µM. In addition, the IC50 on c-Met was 0.824 to 4.94 µM; on AKT, 0.824 to 4.94 µM; at IGFR-1, more than 9.27 µM; on PDGFRB, less than 0.824 µM.

With `c1ccc(CNc2nc3ccccc3n2-c2ncnc(Nc3cccc(Cn4ccnn4)c3)n2)cc1` [Compound 965], the IC50 at Lck is 0.843 to 5.06 µM; at Zap-70, more than 9.48 µM; at Itk it was 5.06 to 7.38 µM; on EGFR it was less than 0.843 µM; at ErbB2, 0.843 to 5.06 µM; on Kdr, less than 0.843 µM. Moreover, the IC50 on c-Met is more than 9.48 µM; at AKT, more than 9.48 µM; on IGFR-1, more than 9.48 µM; on PDGFRB it was less than 0.843 µM.

`COc1cc(Nc2ncnc(Nc3cc(-c4ccco4)[nH]n3)n2)cc(C(F)(F)F)c1` [Compound 821]: the IC50 at Lck, on Zap-70, at Itk, at EGFR, at ErbB2 and at Kdr was 0.958 to 5.75 µM in each case. For the same compound, the IC50 at c-Met lay in the range of 0.958 to 5.75 µM; on AKT, 5.75 to 8.39 µM; at IGFR-1, 0.958 to 5.75 µM; at PDGFRB it was 0.958 to 5.75 µM.

Regarding `c1ccc(CNc2ncnc(Nc3cc(-c4ccco4)n[nH]3)n2)nc1` [Compound 995], the IC50 was more than 13.5 µM at Lck; more than 13.5 µM at Zap-70; 10.5 to 13.5 µM on Itk; 1.2 to 7.18 µM at EGFR; more than 13.5 µM on ErbB2; 7.18 to 10.5 µM on Kdr. The IC50 at c-Met is more than 13.5 µM; on AKT, more than 13.5 µM; at IGFR-1, 7.18 to 10.5 µM; on PDGFRB, 1.2 to 7.18 µM.

Consider `Fc1ccc(CNc2ncccc2-c2ncnc(Nc3cccc(Cn4ccnc4)c3)n2)cc1` [Compound 1109], for which the IC50 was 0.884 to 5.3 µM on Lck; 5.3 to 7.73 µM on Zap-70; less than 0.884 µM at Itk; 0.884 to 5.3 µM at EGFR; 0.884 to 5.3 µM on ErbB2; less than 0.884 µM at Kdr. Moreover, the IC50 at c-Met is 5.3 to 7.73 µM; on AKT, more than 9.94 µM; against IGFR-1, 0.884 to 5.3 µM; at PDGFRB, less than 0.884 µM.

`CNS(=O)(=O)Cc1ccc(Nc2ncnc(Nc3cc(-c4ccc(C(=O)OC)cc4)n[nH]3)n2)cc1` [Compound 883]: the IC50 on Lck was more than 9.1 µM; at Zap-70 it was more than 9.1 µM; on Itk it was more than 9.1 µM; at EGFR, 4.85 to 7.08 µM; at ErbB2 it was more than 9.1 µM; at Kdr it was more than 9.1 µM. Further, the IC50 was less than 0.809 µM at c-Met, more than 9.1 µM on AKT, 4.85 to 7.08 µM against IGFR-1 and 4.85 to 7.08 µM on PDGFRB.

For the compound `COc1ccc(CNc2ncnc(Nc3cc(-c4ccco4)[nH]n3)n2)cc1OC` [Compound 822], the IC50 on Lck was more than 11.4 µM; at Zap-70 it was 6.1 to 8.9 µM; on Itk, 1.02 to 6.1 µM; on EGFR it was 1.02 to 6.1 µM; at ErbB2, 6.1 to 8.9 µM; at Kdr it was 8.9 to 11.4 µM. Besides, the IC50 on c-Met was 6.1 to 8.9 µM; at AKT, more than 11.4 µM; on IGFR-1, 1.02 to 6.1 µM; on PDGFRB it was 1.02 to 6.1 µM.

As to `COc1ccc(Nc2ncnc(Nc3ccc4c(c3)CCC4)n2)cc1OC` [Compound 896], the IC50 on Lck was more than 12.4 µM; on Zap-70, more than 12.4 µM; on Itk it was 6.6 to 9.63 µM; on EGFR, 1.1 to 6.6 µM; at ErbB2, 1.1 to 6.6 µM; on Kdr, 6.6 to 9.63 µM. Further, the IC50 is 1.1 to 6.6 µM on c-Met, 6.6 to 9.63 µM at AKT, 1.1 to 6.6 µM against IGFR-1 and less than 1.1 µM on PDGFRB.

On to `O=C(O)Cc1cccc(Nc2ncnc(-c3cccnc3Nc3ccccc3)n2)c1` [Compound 1094], for which the IC50 is more than 11.3 µM at Lck; 6.02 to 8.78 µM at Zap-70; more than 11.3 µM on Itk; 1 to 6.02 µM on EGFR; 6.02 to 8.78 µM at ErbB2; less than 1 µM on Kdr. Also, the IC50 at c-Met was 1 to 6.02 µM; on AKT, more than 11.3 µM; on IGFR-1, more than 11.3 µM; on PDGFRB, less than 1 µM.

As for `Nc1nc2ccccc2n1-c1ncnc(Nc2cccc(Cn3ccnn3)c2)n1` [Compound 960], the IC50 on Lck is 1.04 to 6.24 µM; on Zap-70, more than 11.7 µM; on Itk, 1.04 to 6.24 µM; at EGFR it was 6.24 to 9.1 µM; at ErbB2, 6.24 to 9.1 µM; on Kdr, less than 1.04 µM. Moreover, the IC50 on c-Met was 9.1 to 11.7 µM; on AKT it was more than 11.7 µM; on IGFR-1, less than 1.04 µM; at PDGFRB it was 9.1 to 11.7 µM.

Regarding `COC(=O)c1ccc(-c2cc(Nc3ncnc(NCCCO)n3)[nH]n2)cc1` [Compound 818], the IC50 at Lck, on Zap-70, on Itk, at EGFR, on ErbB2 and on Kdr was more than 12.2 µM in each case. Also, the IC50 on c-Met was more than 12.2 µM; at AKT, more than 12.2 µM; against IGFR-1 it was more than 12.2 µM; at PDGFRB, 1.08 to 6.5 µM.

Consider `O=C(O)Cc1cccc(Nc2ncnc(-c3cccnc3NCc3ccccc3)n2)c1` [Compound 1099], for which the IC50 on Lck was 0.97 to 5.82 µM; at Zap-70 it was more than 10.9 µM; on Itk, more than 10.9 µM; on EGFR it was less than 0.97 µM; on ErbB2 it was 0.97 to 5.82 µM; at Kdr it was less than 0.97 µM. Besides, the IC50 on c-Met is 0.97 to 5.82 µM; at AKT, more than 10.9 µM; on IGFR-1, more than 10.9 µM; on PDGFRB, less than 0.97 µM.

With `CCN(c1ncnc(Nc2cc(OC)c(OC)c(OC)c2)n1)c1cccc2ccccc12` [Compound 634], the IC50 on Lck was 0.927 to 5.56 µM; on Zap-70, more than 10.4 µM; at Itk it was more than 10.4 µM; at EGFR, less than 0.927 µM; at ErbB2, 0.927 to 5.56 µM; at Kdr, less than 0.927 µM. Besides, the IC50 is 5.56 to 8.11 µM at c-Met, 8.11 to 10.4 µM on AKT, more than 10.4 µM at IGFR-1 and 8.11 to 10.4 µM at PDGFRB.
